Results: PubChem BioAssay (NCI)
“And” between values parts separate entries of the source, which are not always exact repeats. Equal entries are not always repeated.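 Test compounds were applied to cells in 96-well plates for 48 hours at 5 doses. GI50 marks 50% less growth. TGI is the concentration that stops growth completely.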

Assays:
Assay in all cases: NCI-60 cell line screen, 48 h
[1] = test system: DU-145 prostate
[2] = test system: HS 578T breast
[3] = test system: HT29 colon
[4] = test system: LOX IMVI melanoma
[5] = test system: NCI-H226 lung
[6] = test system: SF-539 CNS
[7] = test system: SN12C renal
[8] = test system: SR leukemia
[9] = test system: RXF 393 renal
[10] = test system: HCT-116 colon

In the case of `COc1ccc(Nc2nc(NCc3ccccc3)c3ccccc3n2)cc1`, the GI50 [1] is reported as 8750 nM, the TGI [1] is reported as 21.9 µM and the GI50 [2] is reported as 10.9 µM. For the same compound, the TGI [2] was 30.5 µM, the GI50 [3] was 3480 nM and the TGI [3] was 11.1 µM. The GI50 [4] was 1990 nM, the TGI [4] was 3.92 µM and the GI50 [5] was 11500 nM. For the same compound, the TGI [5] was 37.1 µM, the GI50 [6] was 9520 nM and the TGI [6] was 23.9 µM. The GI50 [7] was 5190 nM, the TGI [7] was 19.6 µM and the GI50 [8] was 2190 nM. The TGI [8] was 6.01 µM.

Compound `CCOc1ccc(/C=N/Nc2cc(C)nc3ccc(Cl)cc23)cc1` has a GI50 [1] of 1820 nM, a TGI [1] of 3.38 µM and a GI50 [2] of 2.15 µM. For the same compound, the TGI [2] was 4.67 µM, the GI50 [3] was 1900 nM and the TGI [3] was 3.47 µM. For the same compound, the GI50 [4] was 1730 nM, the TGI [4] was 3.14 µM and the GI50 [5] was 1850 nM. The TGI [5] was 3.62 µM, the GI50 [9] was 1660 nM and the TGI [9] was 3.06 µM. For the same compound, the GI50 [6] was 1970 nM, the TGI [6] was 3.4 µM and the GI50 [7] was 1820 nM. For the same compound, the TGI [7] was 3.4 µM, the GI50 [8] was 1120 nM and the TGI [8] was 3.5 µM.

For `COC(=O)C1C2CC3C(OC(=O)C31)C2I` (stereo not drawn), the TGI [10] was greater than 100 µM, the TGI [3] was greater than 100 µM and the TGI [4] was greater than 100 µM. For the same compound, the TGI [5] was greater than 100 µM, the TGI [9] was greater than 10 µM and the TGI [6] was greater than 100 µM. For the same compound, the TGI [7] was greater than 100 µM and the TGI [8] was greater than 100 µM.

Work on `N#Cc1cc(-c2ccccc2)[nH]c1-c1nccc2ccccc12` yielded a GI50 [1] of 32300 nM, a TGI [1] greater than 100 µM and a GI50 [10] of 9130 nM. For the same compound, the TGI [10] was greater than 100 µM, the GI50 [2] was 37.6 µM and the TGI [2] was greater than 100 µM. The GI50 [3] was 30500 nM, the TGI [3] was greater than 100 µM and the GI50 [4] was 15600 nM. The TGI [4] was greater than 100 µM, the GI50 [9] was 13600 nM and the TGI [9] was 89.1 µM. The GI50 [6] was 32700 nM, the TGI [6] was greater than 100 µM and the GI50 [7] was 23900 nM. The TGI [7] was greater than 100 µM, the GI50 [8] was 5720 nM and the TGI [8] was greater than 100 µM.

Compound `O=S1Cc2ccccc2CS1` (stereo not drawn) has a TGI [10] of 57.2 µM, a TGI [3] of 30.1 µM and a TGI [4] of 21.3 µM. It also gave a TGI [5] greater than 100 µM, a TGI [9] of 29.5 µM and a TGI [6] of 24.5 µM. The TGI [7] was 28.3 µM and the TGI [8] was 64.4 µM.

Compound `O=C(Nc1cccc(-n2cc(-c3ccncc3)c(-c3cc(O)cc(Cl)c3)n2)c1)Nc1ccc(Cl)c(Cl)c1` has a GI50 [1] of 2800 nM, a TGI [1] of 10.1 µM and a GI50 [10] of 1740 nM. It also gave a TGI [10] of 4.1 µM, a GI50 [2] of 3.23 µM and a TGI [2] greater than 100 µM. For the same compound, the GI50 [3] was 1920 nM, the TGI [3] was 3.9 µM and the GI50 [5] was 2280 nM. The TGI [5] was 7.16 µM, the GI50 [9] was 555 nM and the TGI [9] was 2.46 µM. The GI50 [6] was 1440 nM, the TGI [6] was 3.27 µM and the GI50 [7] was 2780 nM. For the same compound, the TGI [7] was 18.1 µM, the GI50 [8] was 1310 nM and the TGI [8] was 4.24 µM.

In the case of `S=C1CNC(=S)CN1`, the TGI [10] is reported as greater than 100 µM, the TGI [3] is reported as greater than 100 µM and the TGI [4] is reported as greater than 100 µM. The TGI [5] was greater than 100 µM, the TGI [9] was greater than 100 µM and the TGI [6] was greater than 100 µM. It also gave a TGI [7] greater than 100 µM and a TGI [8] greater than 100 µM.

`Cc1ccc(NC(=O)C2C(=O)C(=O)N(c3ccc(C)cc3)C2=O)cc1` (stereo not drawn) gave a TGI [10] greater than 100 µM, a TGI [3] greater than 100 µM and a TGI [9] greater than 100 µM. For the same compound, the TGI [6] was greater than 100 µM, the TGI [7] was greater than 100 µM and the TGI [8] was greater than 100 µM.

In the case of `O=S(=O)(c1ccc2c(c1)C(=NO)c1cc(S(=O)(=O)N3CCCCC3)ccc1-2)N1CCCCC1`, the GI50 [1] is reported as 206 nM and 154 nM, the TGI [1] is reported as 0.397 µM and 0.296 µM and the GI50 [10] is reported as 200 nM and 153 nM. For the same compound, the TGI [10] was 0.434 µM and 0.333 µM, the GI50 [2] was 0.24 µM and 0.198 µM and the TGI [2] was 0.772 µM and 0.48 µM. For the same compound, the GI50 [3] was 856 nM and 194 nM, the TGI [3] was > 1 µM and 0.4 µM and the GI50 [5] was 292 nM and 106 nM. The TGI [5] was 0.936 µM and 0.298 µM, the GI50 [9] was > 1000 nM and 204 nM and the TGI [9] was > 1 µM and 0.358 µM. The GI50 [6] was 227 nM and 170 nM, the TGI [6] was 0.569 µM and 0.312 µM and the GI50 [7] was 208 nM and 144 nM. The TGI [7] was 0.438 µM and 0.28 µM.

In the case of `c1ccc2c(c1)nnn1c3cnccc3nc21`, the TGI [10] is reported as greater than 100 µM, the TGI [3] is reported as 80.3 µM and the TGI [4] is reported as greater than 100 µM. It also gave a TGI [9] of 66.3 µM, a TGI [6] of 97.2 µM and a TGI [7] greater than 100 µM.

Work on `COC(=O)C(=C\Sc1ccccc1)/C=C/C(=O)OC(C)(C)C` yielded a TGI [10] of 21.9 µM, a TGI [3] of 36.1 µM and a TGI [4] of 21.7 µM. It also gave a TGI [5] of 30.9 µM, a TGI [9] of 7.7 µM and a TGI [6] of 27 µM. The TGI [7] was greater than 29 µM and the TGI [8] was 21 µM.

`Oc1c(Cl)cc(C(c2cc(Cl)c(O)c(Cl)c2)C(c2cc(Cl)c(O)c(Cl)c2)c2cc(Cl)c(O)c(Cl)c2)cc1Cl` showed a GI50 [1] of 3630 nM, a TGI [1] of 14.1 µM and a GI50 [10] of 2360 nM. For the same compound, the TGI [10] was 10.8 µM, the GI50 [2] was 4.54 µM and the TGI [2] was 57.4 µM. The GI50 [3] was 4360 nM, the TGI [3] was 16.3 µM and the GI50 [5] was 25700 nM. For the same compound, the GI50 [9] was 1340 nM, the TGI [9] was 4.11 µM and the GI50 [6] was 5330 nM. For the same compound, the TGI [6] was 20.4 µM, the GI50 [7] was 2410 nM and the TGI [7] was 8.99 µM.

Work on `Clc1ccc(-c2nc(-c3c[nH]c4ncccc34)cs2)cc1` yielded a GI50 [1] greater than 100000 nM, a TGI [1] greater than 100 µM and a GI50 [10] of 52900 nM. For the same compound, the TGI [10] was greater than 100 µM, the GI50 [2] was greater than 100 µM and the TGI [2] was greater than 100 µM. It also gave a GI50 [3] greater than 100000 nM, a TGI [3] greater than 100 µM and a GI50 [4] greater than 100000 nM. It also gave a TGI [4] greater than 100 µM, a GI50 [5] greater than 100000 nM and a TGI [5] greater than 100 µM. It also gave a GI50 [9] greater than 100000 nM, a TGI [9] greater than 100 µM and a GI50 [6] of 35700 nM. The TGI [6] was greater than 100 µM, the GI50 [7] was greater than 100000 nM and the TGI [7] was greater than 100 µM.

With `COc1cc(-c2nn(C)nc2-c2cc3ccccc3s2)cc(OC)c1OC` the GI50 [1] was 263 nM, the TGI [1] was greater than 100 µM and the GI50 [10] was 73.8 nM. For the same compound, the TGI [10] was greater than 100 µM, the GI50 [2] was 0.27 µM and the TGI [2] was greater than 100 µM. It also gave a GI50 [3] of 55.8 nM, a TGI [3] of 0.393 µM and a GI50 [4] of 169 nM. The TGI [4] was greater than 100 µM, the GI50 [5] was greater than 100000 nM and the TGI [5] was greater than 100 µM. For the same compound, the GI50 [9] was 286 nM, the TGI [9] was 46.9 µM and the GI50 [6] was 149 nM. It also gave a TGI [6] of 0.903 µM.

`CCC1(O)C(=O)OCc2c1cc1n(c2=O)Cc2c-1nc1ccccc1c2OC` (stereo not drawn) showed a TGI [10] of 1.21 µM, a TGI [3] greater than 87.1 µM and a TGI [4] of 0.441 µM. For the same compound, the TGI [5] was 0.12 µM, the TGI [9] was 0.11 µM and the TGI [6] was 0.0414 µM. The TGI [8] was less than 0.01 µM.

Work on `COC1OC(COCc2ccc(Cl)cc2)C(OCc2ccc(Cl)cc2)C1O` (stereo not drawn) yielded a TGI [3] of 33.2 µM, a TGI [4] of 32.8 µM and a TGI [9] of 29.1 µM. It also gave a TGI [6] of 30.3 µM and a TGI [7] of 31.8 µM.

For `CCOC(=O)CC(=O)N(c1ccc(OC)cc1)C(C(=O)OC)c1ccccc1` (stereo not drawn), the TGI [1] was greater than 100 µM, the TGI [10] was greater than 100 µM and the TGI [2] was greater than 100 µM. For the same compound, the TGI [3] was greater than 100 µM, the TGI [4] was greater than 100 µM and the TGI [6] was greater than 100 µM. It also gave a TGI [7] greater than 100 µM and a TGI [8] greater than 100 µM.

`CC12Oc3ccc4ccccc4c3C1c1c(ccc3ccccc13)O2` (stereo not drawn) was tested, and the TGI [10] was greater than 100 µM, the TGI [3] was greater than 100 µM and the TGI [4] was greater than 100 µM. For the same compound, the TGI [5] was greater than 100 µM, the TGI [9] was greater than 100 µM and the TGI [6] was greater than 100 µM. It also gave a TGI [7] greater than 100 µM and a TGI [8] greater than 100 µM.

`Cn1c(O)c(C=N)c(=O)n(C)c1=O` was tested, and the TGI [3] was greater than 100 µM, the TGI [4] was greater than 100 µM and the TGI [5] was greater than 100 µM. It also gave a TGI [9] greater than 100 µM, a TGI [7] greater than 100 µM and a TGI [8] greater than 100 µM.
